Consider four compounds from patent publication US9102919B2, “WNT pathway stimulation in reprogramming somatic cells with nuclear reprogramming factors” (Whitehead Institute for Biomedical Research, priority 2007, dated 2015).

Structures are written as SMILES.

The subject of experiment [1] is histone deacetylase. As to conditions: cited from earlier work.
For experiment [2], the system named is MEFs over-expressing Oct4/Sox2/Klf4. Nature of the experiment: G418-resistant colony formation in three-factor (Myc[-]) MEFs. The experiment is classed as cell-based, mouse. To be noted: 4 μM; three factors in Wnt3a-CM; G418 day 15; scored day 28. On the procedure:
Cell culture, viral infections, induction of gene expression. Cells were cultured in 15% FBS, DMEM-KO, Penn/Step, Glutamine, Nonessential amino acids, β-ME, and LIF. Mouse embryo fibroblasts (MEFs) with an Oct4-IRES-eGFP construct (Meissner, A., et al., Nature Biotechnology, Direct reprogramming of genetically unmodified fibroblasts into pluripotent stem cells. Published online: 27 Aug. 2007|doi:10.1038/nbt1335) inserted into the endogenous Oct4 locus were infected with lentiviral vectors driving the doxycycline-inducible expression of Oct4, Sox2, Klf4 and c-Myc or only Oct4, Sox2, and Klf4. The vectors were based on the FUGW lentiviral vector backbone (Lois C, et al., Science 2002; 295: 868-872.), modified to include a tet-inducible promoter. Two days following infection cells were split and induced with doxycycline in the presence or absence of Wnt3a conditioned media (used in a 1:1 dilution with normal ES media with 2×LIF). These cells were monitored for GFP expression by flow cytometry at day 13 and again at day 20. […] Following at least one week of G418 selection, resistant colonies were examined and counted. […]
We hypothesized that stimulation of the stimulation of the Wnt pathway using soluble factors could modulate the efficiency of inducing pluripotency in somatic cells. […] GFP expression was analyzed by FACS on day 13 and 20. […]

Experiment [3] relates to MEFs overexpressing Oct4/Sox2/Klf4/c-Myc. Description: G418-resistant colony formation in four-factor MEFs. The experiment is classed as cell-based, mouse. The procedure: Cell culture, viral infections, induction of gene expression. Cells were cultured in 15% FBS, DMEM-KO, Penn/Step, Glutamine, Nonessential amino acids, β-ME, and LIF. Mouse embryo fibroblasts (MEFs) with an Oct4-IRES-eGFP construct (Meissner, A., et al., Nature Biotechnology, Direct reprogramming of genetically unmodified fibroblasts into pluripotent stem cells. Published online: 27 Aug. 2007|doi:10.1038/nbt1335) inserted into the endogenous Oct4 locus were infected with lentiviral vectors driving the doxycycline-inducible expression of Oct4, Sox2, Klf4 and c-Myc or only Oct4, Sox2, and Klf4. The vectors were based on the FUGW lentiviral vector backbone (Lois C, et al., Science 2002; 295: 868-872.), modified to include a tet-inducible promoter. Two days following infection cells were split and induced with doxycycline in the presence or absence of Wnt3a conditioned media (used in a 1:1 dilution with normal ES media with 2×LIF). These cells were monitored for GFP expression by flow cytometry at day 13 and again at day 20. In parallel, MEFs with doxycycline-inducible Oct4 expressed from the collagen locus and Oct4-IRES-(neo resistance) inserted into the endogenous Oct4 locus were infected with lentiviruses driving the overexpression of either Sox2, Klf4 and c-Myc or Sox2 and Klf4. Again, two days following infection cells were split and induced with doxycycline in the presence or absence of Wnt3a conditioned media. […] Following at least one week of G418 selection, resistant colonies were examined and counted.
Conditioned medium. Wnt 3a conditioned media (CM) was collected from mouse L cells that had been transfected with Wnt3a cDNA (Shibamoto et al. 1998). These cells are available through ATCC(CRL-2647) along with the untransfected parent cell line (CRL-2648) to use for control conditioned medium. […]
We hypothesized that stimulation of the stimulation of the Wnt pathway using soluble factors could modulate the efficiency of inducing pluripotency in somatic cells. […] GFP expression was analyzed by FACS on day 13 and 20. […] Surviving colonies were counted on day 20. […]

The target in experiment [4] is GSK3. As to conditions: cited from earlier work.
The subject of experiment [5] is 26 other kinases. To be noted: cited from earlier work.
Experiment [6] deals with CK-II. As to conditions: at >100 μM; cited from earlier work.
For experiment [7], the system named is PKA. As to conditions: at >100 μM; cited from earlier work.
The subject of experiment [8] is PKC. As to conditions: at >100 μM; cited from earlier work.
Experiment [9] has as its target Cdk-1/cyclin B (Homo sapiens, UniProt P06493). As to conditions: at >100 μM; cited from earlier work.

Sequence of Cdk-1/cyclin B (P06493 whole entry, species assumed): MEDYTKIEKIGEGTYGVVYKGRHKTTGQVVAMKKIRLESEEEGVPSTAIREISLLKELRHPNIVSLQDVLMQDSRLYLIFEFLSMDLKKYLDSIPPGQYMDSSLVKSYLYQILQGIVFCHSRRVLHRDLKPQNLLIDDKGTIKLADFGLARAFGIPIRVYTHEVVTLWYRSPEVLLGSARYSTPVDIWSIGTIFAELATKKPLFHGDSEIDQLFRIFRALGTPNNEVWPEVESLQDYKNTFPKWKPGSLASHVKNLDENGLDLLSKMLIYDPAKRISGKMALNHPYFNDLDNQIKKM
Sequence of Cdk-1/cyclin B (P14635 whole entry partner, species assumed): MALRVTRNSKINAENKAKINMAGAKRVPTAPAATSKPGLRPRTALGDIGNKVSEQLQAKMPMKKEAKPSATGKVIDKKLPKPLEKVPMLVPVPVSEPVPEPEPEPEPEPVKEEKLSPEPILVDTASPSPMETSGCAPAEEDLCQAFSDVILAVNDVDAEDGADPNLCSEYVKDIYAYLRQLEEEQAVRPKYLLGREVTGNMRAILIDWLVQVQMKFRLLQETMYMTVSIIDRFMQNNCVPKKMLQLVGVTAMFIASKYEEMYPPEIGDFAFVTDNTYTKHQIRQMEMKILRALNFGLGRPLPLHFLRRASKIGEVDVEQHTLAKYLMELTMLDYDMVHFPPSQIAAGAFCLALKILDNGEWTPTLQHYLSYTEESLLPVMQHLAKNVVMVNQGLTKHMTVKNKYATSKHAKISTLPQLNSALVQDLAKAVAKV

As to `CC(/C=C/C(=O)NO)=C\[C@@H](C)C(=O)c1ccc(N(C)C)cc1` [Trichostatin A, [R-(E,E)]-7-[4-(Dimethylamino)phenyl]-N-hydroxy-4,6-dimethyl-7-oxo-2,4-heptadienamide], the “inhibition of histone deacetylase” value in experiment [1] is recorded as “inhibits histone deacetylase at nanomolar concentrations”.

For the compound `O=C1[C@H](Cc2ccc(O)cc2)N2C(=O)CCN(C(=O)NCc3ccccc3)[C@H]2CN1Cc1cccc2ccccc12` [ICG-001], the “effect on Wnt3a-CM promoted Myc[-] iPS formation” value in experiment [2] is reported as “strongly inhibited”. For the same compound, in experiment [3] (4 μM, four factors in Wnt3a-CM, selection day 10, assessed day 20), the “effect on number of G418 colonies in c-Myc transduced cells” value is recorded as “only a subtle effect”. For the same compound, the iPS colonies entry in experiment [3] (25 μM, four factors (data not shown)) was “multiple Oct4/Sox2/Klf4/c-Myc iPS colonies were observed”. Moreover, the iPS colony numbers result in [3] (higher doses than 4 μM, four factors (data not shown)) was “further reduced”.

`COc1ccc(CNC(=O)Nc2ncc([N+](=O)[O-])s2)cc1` [AR-A014418, N-(4-Methoxybenzyl)-N′-(5-nitro-1,3-thiazol-2-yl)urea]: in experiment [4], the Ki is […]. In [5], the “inhibition of other kinases” value was “does not significantly inhibit”.

`Cn1sc(=O)n(Cc2ccccc2)c1=O` [TDZD-8, 4-Benzyl-2-methyl-1,2,4-thiadiazolidine-3,5-dione]: the inhibition result in experiment [6], in experiment [7], in experiment [8] and in experiment [9] was “does not inhibit” in each case.

The term Ki denotes the dissociation constant of the complex between target and ligand, obtained from inhibition or displacement.
